# US20170283804A1, “ANTISENSE COMPOUNDS AND USES THEREOF” (Ionis Pharmaceuticals, Inc., priority 2014, published 2017)
# Oligonucleotides are written 5' to 3', each unit as a sugar letter and its base; * is a phosphorothioate linkage, no mark a phosphodiester; rarer units and linkages stand in square brackets, end groups in braces. Plain capitals give the bases only. e = 2'-O-(2-methoxyethyl) (MOE); k = constrained ethyl (cEt); [5mC] = 5-methylcytosine; d = 2'-deoxy (DNA)
# Experiments:
# [1] = system: mouse Metastasis associated lung adenocarcinoma transcript 1 (Malat-1); assay: In vivo dose response of Isis No. 556062 with and without FTY-720 pre-treatment (Malat-1 RNA, Example 3); conditions: mice; liver; 1 mg/kg FTY-720 i.p. once a day for 11 days; Isis No. 556062 subcutaneous on day 10
# Method: Each treatment group consisted of 4 animals.
# Malat-1 RNA levels were determined as described in Example 2. The results are presented in Table 18 as average Malat-1 RNA levels for each treatment group. Results for groups that received Isis No. 556062 alone are relative the group that received only PBS, and results for groups that received Isis No. 556062 and 1 mg/kg FTY-720 are relative to the group that received 1 mg/kg FTY-720 and PBS in place of Isis No. 556062.
# [2] = system: mouse Scavenger Receptor Class B, Number 1 (SRB-1) transcript; assay: Isis No. 353382 activity in MHT cells with or without bioactive lipid pre-treatment (SRB-1 mRNA, real-time PCR); format: cell-based
# Text: Antisense oligonucleotides were synthesized using standard solid phase oligonucleotide synthetic methods. Isis No. 353382 targets the mouse Scavenger Receptor Class B, Number 1 (SRB-1) transcript (GENBANK accession number NM_016741.1, SEQ ID NO: 1). The sequence of Isis No. 353382 is 5′-[…]-3′ (SEQ ID NO: 2). It is a 5-10-5 MOE gapmer, wherein the five nucleosides at the 5′-end and the five nucleosides at the 3′-end comprise 2′-methoxyethyl (MOE) modifications, and the ten middle nucleosides are 2′-deoxynucleosides. All internucleoside linkages are phosphorothioate linkages. The cytosine bases are 5-methylcytosines.
# In order to test the effect of pre-treatment with bioactive lipids on Isis No. 353382 activity in vitro, mouse hepatocellular SV40 large T-antigen (MHT) carcinoma cells were treated with 200 nM myriocin or 3 μM FTY-720 was added 2 hours before Isis No. 353382 at the concentrations shown in Tables 1 and 2 below. Cells were lysed 24 hours following oligonucleotide addition, and total RNA was purified. SRB-1 mRNA levels were determined using real-time PCR and RIBOGREEN® RNA quantification reagent (Molecular Probes, Inc. Eugene, Oreg.) according to standard protocols.
# [3] = system: mouse Metastasis associated lung adenocarcinoma transcript 1 (Malat-1); assay: In vivo activity of Isis No. 556062 with and without FTY-720 pre-treatment (Malat-1 RNA in tissues, Example 2); conditions: mice
# Text: Isis No. 556062 targets the mouse Metastasis associated lung adenocarcinoma transcript 1 (Malat-1, GENBANK accession number NR_002847.2, SEQ ID NO: 3). The sequence of Isis No. 556062 is 5′-GGCTTAATGCAGCATT-3′ (SEQ ID NO: 4). It is a 3-10-3 (S)-cEt gapmer, wherein the three nucleosides at the 5′-end and the three nucleosides at the 3′-end comprise 2′-O—CH(CH3)-4′ modifications, and the ten middle nucleosides are 2′-deoxynucleosides. All internucleoside linkages are phosphorothioate linkages. The cytosine bases are 5-methylcytosines.
# Malat-1 RNA levels were determined using real-time PCR and RIBOGREEN® RNA quantification reagent (Molecular Probes, Inc. Eugene, OR) according to standard protocols. Malat-1 RNA levels were determined relative to total RNA (using Ribogreen), prior to normalization to PBS-treated control. The results are presented in Table 16 as average Malat-1 RNA levels for each treatment group. Results for groups that received Isis No. 556062 alone are relative the group that received only PBS, and results for groups that received Isis No. 556062 and FTY-720 are relative to the group that received 3 mg/kg FTY-720 and PBS in place of Isis No. 556062.
compound,measurement,setting,value
"CCCCCCCCc1ccc(CCC(N)(CO)CO)cc1 [FTY-720, 2-amino-2-[2-(4-octylphenyl)ethyl]propane-1,3-diol, reference compound]",Effect of pre-treatment on the effect of Isis No. 556062 in vivo,[1],potentiated the effect of Isis No. 556062
same,Effect of pre-treatment on the effect of Isis No. 353382 in vitro,[2]; 3 μM FTY-720 2 hours before Isis No. 353382,potentiated the effect of Isis No. 353382
same,Effect of pre-treatment on the effect of Isis No. 556062 in vivo,"[3]; liver and fat, FTY-720 0.3, 1 or 3 mg/kg i.p. once a day for 11 days, Isis No. 556062 i.p. on day 10",potentiated the effect of Isis No. 556062
"Isis No. 556062: 3-10-3 (S)-cEt gapmer 5′-GGCTTAATGCAGCATT-3′ (SEQ ID NO: 4), all phosphorothioate linkages, 5-methylcytosines; targets mouse Malat-1 (antisense kG*kG*k[5mC]*dT*dT*dA*dA*dT*dG*d[5mC]*dA*dG*d[5mC]*kA*kT*kT)",Average Malat-1 RNA,"[3]; Fat, 2 mg/kg Isis No. 556062 i.p., 0 mg/kg FTY-720",89 % control
same,Average Malat-1 RNA,"[3]; Fat, 2 mg/kg Isis No. 556062 i.p., 0.3 mg/kg FTY-720 i.p. daily",54 % control
same,Average Malat-1 RNA,"[3]; Fat, 2 mg/kg Isis No. 556062 i.p., 1 mg/kg FTY-720 i.p. daily",69 % control
same,Average Malat-1 RNA,"[3]; Fat, 2 mg/kg Isis No. 556062 i.p., 3 mg/kg FTY-720 i.p. daily",45 % control
same,Average Malat-1 RNA,"[3]; Fat, 10 mg/kg Isis No. 556062 i.p., 0 mg/kg FTY-720",63 % control
same,Average Malat-1 RNA,"[3]; Fat, 10 mg/kg Isis No. 556062 i.p., 0.3 mg/kg FTY-720 i.p. daily",39 % control
same,Average Malat-1 RNA,"[3]; Fat, 10 mg/kg Isis No. 556062 i.p., 1 mg/kg FTY-720 i.p. daily",32 % control
same,Average Malat-1 RNA,"[3]; Fat, 10 mg/kg Isis No. 556062 i.p., 3 mg/kg FTY-720 i.p. daily",39 % control
same,Average Malat-1 RNA,"[3]; Liver, 2 mg/kg Isis No. 556062 i.p., 0 mg/kg FTY-720",36 % control
same,Average Malat-1 RNA,"[3]; Liver, 2 mg/kg Isis No. 556062 i.p., 0.3 mg/kg FTY-720 i.p. daily",30 % control
same,Average Malat-1 RNA,"[3]; Liver, 2 mg/kg Isis No. 556062 i.p., 1 mg/kg FTY-720 i.p. daily",23 % control
same,Average Malat-1 RNA,"[3]; Liver, 2 mg/kg Isis No. 556062 i.p., 3 mg/kg FTY-720 i.p. daily",24 % control
same,Average Malat-1 RNA,"[3]; Liver, 10 mg/kg Isis No. 556062 i.p., 0 mg/kg FTY-720",12 % control
same,Average Malat-1 RNA,"[3]; Liver, 10 mg/kg Isis No. 556062 i.p., 0.3 mg/kg FTY-720 i.p. daily",9 % control
same,Average Malat-1 RNA,"[3]; Liver, 10 mg/kg Isis No. 556062 i.p., 1 mg/kg FTY-720 i.p. daily",7 % control
same,Average Malat-1 RNA,"[3]; Liver, 10 mg/kg Isis No. 556062 i.p., 3 mg/kg FTY-720 i.p. daily",10 % control
"CCCCCCC(=O)CCCCCC/C=C/C[C@@H](O)[C@H](O)[C@@](N)(CO)C(=O)O [myriocin, reference compound]",Effect of pre-treatment on the effect of Isis No. 353382 in vitro,[2]; 200 nM myriocin 2 hours before Isis No. 353382,potentiated the effect of Isis No. 353382
"Isis No. 353382: 5-10-5 MOE gapmer 5′-GCTTCAGTCATGACTTCCTT-3′ (SEQ ID NO: 2), all phosphorothioate linkages, 5-methylcytosines; targets mouse SRB-1 transcript (antisense eG*e[5mC]*eT*eT*e[5mC]*dA*dG*dT*d[5mC]*dA*dT*dG*dA*d[5mC]*dT*eT*e[5mC]*e[5mC]*eT*eT)",Average SRB-1 mRNA level in cells receiving 200 nM myriocin,"[2]; 0.16 nM Isis No. 353382, 200 nM myriocin added 2 hours before, 24 hours",73.5 % control
same,Average SRB-1 mRNA level in cells receiving 3 μM FTY-720,"[2]; 0.16 nM Isis No. 353382, 3 μM FTY-720 added 2 hours before, 24 hours",85.5 % control
same,Average SRB-1 mRNA level in cells receiving no pre-treatment,"[2]; 0.16 nM Isis No. 353382, 24 hours, no pre-treatment",96.9 % control
same,Average SRB-1 mRNA level in cells receiving no pre-treatment,"[2]; 0.16 nM Isis No. 353382, no pre-treatment, 24 hours",91.8 % control
same,Average SRB-1 mRNA level in cells receiving 200 nM myriocin,"[2]; 0.64 nM Isis No. 353382, 200 nM myriocin added 2 hours before, 24 hours",73.2 % control
same,Average SRB-1 mRNA level in cells receiving 3 μM FTY-720,"[2]; 0.64 nM Isis No. 353382, 3 μM FTY-720 added 2 hours before, 24 hours",77.8 % control
same,Average SRB-1 mRNA level in cells receiving no pre-treatment,"[2]; 0.64 nM Isis No. 353382, 24 hours, no pre-treatment",95.9 % control
same,Average SRB-1 mRNA level in cells receiving no pre-treatment,"[2]; 0.64 nM Isis No. 353382, no pre-treatment, 24 hours",87.8 % control
same,Average SRB-1 mRNA level in cells receiving 200 nM myriocin,"[2]; 3.2 nM Isis No. 353382, 200 nM myriocin added 2 hours before, 24 hours",46.8 % control
same,Average SRB-1 mRNA level in cells receiving 3 μM FTY-720,"[2]; 3.2 nM Isis No. 353382, 3 μM FTY-720 added 2 hours before, 24 hours",65.9 % control
same,Average SRB-1 mRNA level in cells receiving no pre-treatment,"[2]; 3.2 nM Isis No. 353382, 24 hours, no pre-treatment",72.2 % control
same,Average SRB-1 mRNA level in cells receiving no pre-treatment,"[2]; 3.2 nM Isis No. 353382, no pre-treatment, 24 hours",80.9 % control
same,Average SRB-1 mRNA level in cells receiving 200 nM myriocin,"[2]; 16 nM Isis No. 353382, 200 nM myriocin added 2 hours before, 24 hours",36.1 % control
same,Average SRB-1 mRNA level in cells receiving 3 μM FTY-720,"[2]; 16 nM Isis No. 353382, 3 μM FTY-720 added 2 hours before, 24 hours",46.5 % control
same,Average SRB-1 mRNA level in cells receiving no pre-treatment,"[2]; 16 nM Isis No. 353382, 24 hours, no pre-treatment",46.3 % control
same,Average SRB-1 mRNA level in cells receiving no pre-treatment,"[2]; 16 nM Isis No. 353382, no pre-treatment, 24 hours",74.3 % control
same,Average SRB-1 mRNA level in cells receiving 200 nM myriocin,"[2]; 80 nM Isis No. 353382, 200 nM myriocin added 2 hours before, 24 hours",27.2 % control
same,Average SRB-1 mRNA level in cells receiving 3 μM FTY-720,"[2]; 80 nM Isis No. 353382, 3 μM FTY-720 added 2 hours before, 24 hours",27.1 % control
same,Average SRB-1 mRNA level in cells receiving no pre-treatment,"[2]; 80 nM Isis No. 353382, 24 hours, no pre-treatment",32.3 % control
same,Average SRB-1 mRNA level in cells receiving no pre-treatment,"[2]; 80 nM Isis No. 353382, no pre-treatment, 24 hours",53.5 % control
same,Average SRB-1 mRNA level in cells receiving 200 nM myriocin,"[2]; 400 nM Isis No. 353382, 200 nM myriocin added 2 hours before, 24 hours",23.5 % control
same,Average SRB-1 mRNA level in cells receiving 3 μM FTY-720,"[2]; 400 nM Isis No. 353382, 3 μM FTY-720 added 2 hours before, 24 hours",23.6 % control
same,Average SRB-1 mRNA level in cells receiving no pre-treatment,"[2]; 400 nM Isis No. 353382, 24 hours, no pre-treatment",26.8 % control
same,Average SRB-1 mRNA level in cells receiving no pre-treatment,"[2]; 400 nM Isis No. 353382, no pre-treatment, 24 hours",52.2 % control
same,Average SRB-1 mRNA level in cells receiving 200 nM myriocin,"[2]; 2,000 nM Isis No. 353382, 200 nM myriocin added 2 hours before, 24 hours",19.6 % control
same,Average SRB-1 mRNA level in cells receiving 3 μM FTY-720,"[2]; 2,000 nM Isis No. 353382, 3 μM FTY-720 added 2 hours before, 24 hours",16.8 % control
same,Average SRB-1 mRNA level in cells receiving no pre-treatment,"[2]; 2,000 nM Isis No. 353382, 24 hours, no pre-treatment",22.4 % control
same,Average SRB-1 mRNA level in cells receiving no pre-treatment,"[2]; 2,000 nM Isis No. 353382, no pre-treatment, 24 hours",44.9 % control
same,Average SRB-1 mRNA level in cells receiving 200 nM myriocin,"[2]; 10,000 nM Isis No. 353382, 200 nM myriocin added 2 hours before, 24 hours",15.6 % control
same,Average SRB-1 mRNA level in cells receiving 3 μM FTY-720,"[2]; 10,000 nM Isis No. 353382, 3 μM FTY-720 added 2 hours before, 24 hours",12.1 % control
same,Average SRB-1 mRNA level in cells receiving no pre-treatment,"[2]; 10,000 nM Isis No. 353382, 24 hours, no pre-treatment",16.6 % control
same,Average SRB-1 mRNA level in cells receiving no pre-treatment,"[2]; 10,000 nM Isis No. 353382, no pre-treatment, 24 hours",36.0 % control
